Our source for the EC50 values is doi:10.1101/2025.05.02.651384v1 (biorxiv, 2025).

The term EC50 denotes the concentration needed to bring the measured effect to its halfway point. Higher therefore signals lower potency in that assay.

Each structure is given as a SMILES string.

T1 sequence (Q9BXC0 whole entry): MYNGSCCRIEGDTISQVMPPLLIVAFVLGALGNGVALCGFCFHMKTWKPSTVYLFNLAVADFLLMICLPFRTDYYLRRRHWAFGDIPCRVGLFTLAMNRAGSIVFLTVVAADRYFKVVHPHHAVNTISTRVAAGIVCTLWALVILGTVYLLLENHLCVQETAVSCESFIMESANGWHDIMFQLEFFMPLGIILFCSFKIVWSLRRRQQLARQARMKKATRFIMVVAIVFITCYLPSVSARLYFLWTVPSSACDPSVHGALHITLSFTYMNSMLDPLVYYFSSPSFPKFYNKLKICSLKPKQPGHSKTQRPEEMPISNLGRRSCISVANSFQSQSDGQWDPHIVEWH

One assay has as its target T1, HCAR1 (GPR81) (Homo sapiens, UniProt Q9BXC0). The assay is described as follows: ebBRET Gαz activation.
Settings: not given
Format: cell-based.
Turning to `C[C@H](O)C(=O)O` [(+)-lactic acid], a half-maximal effect (EC50) was put at 1000 µM.
The same measure, in the same setting: the result for `CN1CCN(C(=O)Cc2sc(NC(=O)[C@H]3CC[C@H](C)CC3)nc2-c2cccs2)CC1` [GPR81 agonist 1] reads 0.63 µM.
Same read-out and setting: the result for `O=C(O)c1cc(O)cc(O)c1` [3,5-DHBA] reads 0.2 µM.

The next assay has as its target T1, HCAR1 (GPR81). The assay is described as follows: ebBRET Gαi2 activation. The class given is cell-based. The conditions noted are these: Gαi2, 37 °C, agonist.
In the case of `CCOc1cc(Cl)c(-c2ccc(-c3nc4ccccc4s3)c(=O)[nH]2)cc1N1CCOCC1` [AZ9234], it took 6.8 µM to reach a half-maximal effect (EC50).
Take `CCOc1cc(Cl)c(C(=O)NC(=O)Nc2ncc(C)s2)cc1N1CCOCC1` [AZ2053]: it took 1.78 µM to reach a half-maximal effect (EC50).
The same measure, in the same setting: then `CCOc1cc(Cl)c(C(=O)NC(=O)Nc2nc3c(s2)CN(C(C)=O)CC3)cc1N1CCOCC1` [AZ4901], with 7.1 µM.
`CCOc1cc(Cl)c(C(=O)NC(=O)Nc2nc3c(s2)CCCC3)cc1N1CCOCC1` [AZ9091] showed an EC50 of 2 µM.
